Results from ChEMBL document CHEMBL1201862, “PubChem BioAssay data set” (2004).
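Growth conditions: 96-well plates. Treatment: test compound, 48 hours, 5 concentrations. Analysis: linear interpolation between bracketing concentrations; unreached endpoints set to highest concentration. GI50 is the concentration that inhibits growth by half.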 The source made the active and inactive calls. No stated cut-off is given here; in the data, active = GI50 up to about 1.1 µM and inactive = higher.

Key:
Test in all cases: DTP human tumour cell line panel, 48 h
[1] = system: SW-620
[2] = system: SF-268
[3] = system: U-251
[4] = system: HT-29
[5] = system: NCI-H226
[6] = system: OVCAR-4
[7] = system: HOP-62
[8] = system: UACC-62
[9] = system: RPMI-8226
[10] = system: OVCAR-5
[11] = system: HCC 2998
[12] = system: COLO 205
[13] = system: OVCAR-8
[14] = system: IGROV-1

Measured: GI50

O=C(CCc1cc(-c2ccccc2)nc(S)n1)N(Cc1ccccc1)Cc1ccccc1
inactive: [1] > 100 µM | [2] > 100 µM | [3] > 100 µM | [4] > 100 µM | [5] > 100 µM | [6] > 100 µM | [7] > 100 µM | [8] > 100 µM | [9] > 100 µM | [10] > 100 µM | [11] > 100 µM | [12] > 100 µM | [13] > 100 µM | [14] > 100 µM

O/N=C\C(=N/O)Nc1ccc(Cc2ccc(NC(/C=N\O)=N/O)cc2)cc1
inactive: [1] 52.1 µM | [2] > 100 µM | [3] 37.5 µM | [4] 60.5 µM | [5] 18.1 µM | [6] 57.9 µM | [7] 27.4 µM | [8] 21.2 µM | [9] 30.5 µM | [10] 89.9 µM | [11] 83.9 µM | [12] 54.7 µM | [13] 36.1 µM | [14] 34.4 µM

COC(=O)/C(=N/Nc1cccc(Cl)c1)C(C(=O)C(=O)Nc1cccc(Cl)c1C)c1nc2ccccc2nc1C (centres undefined)
inactive: [1] > 100 µM | [2] > 100 µM | [4] > 100 µM | [6] 68.5 µM | [7] 38.3 µM | [8] 24.6 µM | [9] 88.5 µM | [10] 24.4 µM | [11] 43.8 µM | [12] > 100 µM | [13] > 100 µM | [14] 41.7 µM

COC1CC(OS(=O)(=O)c2ccc([N+](=O)[O-])cc2)C(OC(=O)c2ccccc2)C(C)O1 (centres undefined)
inactive: [1] > 100 µM | [2] 82.2 µM | [3] > 100 µM | [4] > 100 µM | [6] 49.9 µM | [7] > 100 µM | [8] > 100 µM | [9] > 100 µM | [10] > 100 µM | [11] > 100 µM | [12] > 100 µM | [13] > 100 µM | [14] > 100 µM

NCCn1ccc(NC(c2ccccc2)(c2ccccc2)c2ccccc2)nc1=O
inactive: [1] 19.1 µM | [2] 16.3 µM | [3] 20.7 µM | [4] 16.9 µM | [5] 15.8 µM | [6] 36.3 µM | [7] 30.1 µM | [9] 18.6 µM | [10] > 100 µM | [11] 18 µM | [12] 29.8 µM | [13] 39.8 µM | [14] 40.7 µM

CCCOP1(=O)C=C(O)C(Cl)=C(C)C1 (centres undefined)
inactive: [1] > 100 µM | [2] > 100 µM | [3] > 100 µM | [4] > 100 µM | [5] > 100 µM | [6] > 100 µM | [7] > 100 µM | [8] > 100 µM | [11] > 100 µM | [12] > 100 µM | [13] > 100 µM | [14] > 100 µM

CCOC(=O)CC1COc2ccc3c(c21)OCO3 (centres undefined)
inactive: [1] > 100 µM | [3] > 100 µM | [4] > 100 µM | [5] > 100 µM | [6] > 100 µM | [7] > 100 µM | [8] > 100 µM | [9] > 100 µM | [10] > 100 µM | [11] > 100 µM | [12] > 100 µM | [13] > 100 µM | [14] > 100 µM

COc1ccc(/C=N/NC(=O)CSc2nc(-c3ccccc3)c(-c3ccccc3)[nH]2)cc1OC
inactive: [1] 29.9 µM | [2] 50 µM | [3] 25.6 µM | [4] 29.8 µM | [5] 30.8 µM | [6] 31.3 µM | [7] 39.3 µM | [8] 23.5 µM | [9] 20.3 µM | [10] 22 µM | [12] 21.2 µM | [13] 16.2 µM | [14] 28.8 µM

O=C1CCC(=O)C(C(=O)CCC(=O)Nc2cccc(Cl)c2)C1 (centres undefined)
inactive: [1] > 100 µM | [3] > 100 µM | [4] > 100 µM | [5] > 100 µM | [7] > 100 µM | [8] > 100 µM | [9] > 100 µM | [10] > 100 µM | [11] > 100 µM | [12] > 100 µM | [13] > 100 µM | [14] > 100 µM

COC(=O)CSc1nnc(-c2ccccc2)[nH]1
inactive: [1] > 100 µM | [2] > 100 µM | [3] > 100 µM | [4] > 100 µM | [5] > 100 µM | [6] > 100 µM | [7] > 100 µM | [8] > 100 µM | [9] > 100 µM | [10] > 100 µM | [12] > 100 µM | [13] > 100 µM | [14] > 100 µM

COc1ccc(C2S/C(=C\c3ccccc3O)C(=O)N2NC(=O)Cc2ccccc2)cc1 (centres undefined)
inactive: [1] > 100 µM | [2] > 100 µM | [3] > 100 µM | [4] > 100 µM | [5] > 100 µM | [6] > 100 µM | [7] > 100 µM | [8] 78.7 µM | [9] 48.5 µM | [10] > 100 µM | [12] > 100 µM | [13] 83.2 µM | [14] > 100 µM

COc1ccc(C2NC3=C(CCCC3)N2)cc1
inactive: [2] > 100 µM | [3] 53.8 µM | [4] 42.9 µM | [5] > 100 µM | [6] > 100 µM | [7] > 100 µM | [9] > 100 µM | [10] 80.2 µM | [11] > 100 µM | [12] 34 µM | [13] > 100 µM | [14] > 100 µM

CCOC(=O)c1oc2c(OC)ccc3c2c1CCC3
inactive: [1] > 100 µM | [2] > 100 µM | [3] > 100 µM | [4] 37.7 µM | [6] > 100 µM | [7] > 100 µM | [8] > 100 µM | [9] > 100 µM | [10] > 100 µM | [11] > 100 µM | [12] > 100 µM | [13] > 100 µM | [14] > 100 µM

CCOC(=O)C1S/C(=N\c2ccccc2)N=C1C (centres undefined)
inactive: [1] > 100 µM | [2] 60.1 µM | [3] > 100 µM | [4] 30.3 µM | [5] 74 µM | [6] 68.7 µM | [7] > 100 µM | [9] 51.2 µM | [10] 96.8 µM | [11] > 100 µM | [12] > 100 µM | [13] > 100 µM | [14] > 100 µM

NC(C(=O)O)c1ccc(C(=O)O)cc1 (centres undefined)
inactive: [1] > 100 µM | [2] > 100 µM | [3] > 100 µM | [4] > 100 µM | [5] > 100 µM | [6] > 100 µM | [7] > 100 µM | [8] > 100 µM | [9] > 100 µM | [10] > 100 µM | [11] > 100 µM | [12] > 100 µM | [13] > 100 µM | [14] > 100 µM
